Results as given in paper PMC4632126, “High specific selectivity and Membrane-Active Mechanism of the synthetic centrosymmetric α-helical peptides with Gly-Gly pairs” (Scientific Reports, 2015).
Where no end group is shown, it is not given here.

Experiments:
E. coli ATCC 25922 [1] = type: cell-based, Escherichia coli; conditions: ATCC 25922, 5 h
Description: (§1) Minimal bactericidal concentrations (MBCs) were measured using the method which has been adopted from National Committee for Clinical Laboratory Standards (NCCLS), with modifications. In short, 50 μL peptide solutions were pipetted into microtiter plates at various concentrations ranging from 1 to 128 μM. Freshly grown bacteria were added to the each well in a density of 0.5–1 × 10^6 CFUmL^−1. Microtiter plated was incubated at 37 °C for 5 h. Fifty microliters of each incubation mixture was further serially diluted (up to 10^−3 of the initial bacterial concentration), transferred on agar plates and incubated overnight. On the following day, the number of colonies was evaluated and the initial CFU/well retrospectively calculated. The minimum bactericidal concentrations (μM) were determined as the lowest concentration of the peptides that prevented more than 99.9% bacteria growth.

E. coli UB1005 = type: cell-based, Escherichia coli; conditions: UB1005, 5 h
Description: as §1

S. typhimurium ATCC14028 = type: cell-based, Salmonella typhimurium; conditions: ATCC14028, 5 h
Description: as §1

S. aureus ATCC29213 = type: cell-based, Staphylococcus aureus; conditions: ATCC 29213, 5 h
Description: as §1

[2] = test system: Methicillin-resistant S. aureus ATCC 43300; conditions: S. aureus 43300 (methicillin-resistant); lowest concentration preventing more than 99.9% growth; 37 °C, 5 h; representative of three trials
Description: as §1, with “In” for “Minimal bactericidal concentrations (MBCs) were measured using the method which has been adopted from National Committee for Clinical Laboratory Standards (NCCLS), with modifications. In”

S. epidermidis ATCC12228 = type: cell-based, Staphylococcus epidermidis; conditions: ATCC12228, 5 h
Description: In short, 50 μL peptide solutions were pipetted into microtiter plates at various concentrations ranging from 1 to 128 μM. Freshly grown bacteria were added to the each well in a density of 0.5–1 × 10^6 CFUmL^−1. Microtiter plated was incubated at 37 °C for 5 h. Fifty microliters of each incubation mixture was further serially diluted (up to 10^−3 of the initial bacterial concentration), transferred on agar plates and incubated overnight. On the following day, the number of colonies was evaluated and the initial CFU/well retrospectively calculated. The minimum bactericidal concentrations (μM) were determined as the lowest concentration of the peptides that prevented more than 99.9% bacteria growth. Each test was reproduced at least 3 times using 6 replicates.

[3] = test system: 3 gram-negative strains tested; assay: Geometric mean of MBCs and therapeutic index, gram-negative strains; type: cell-based; conditions: MHC/GM for 3 gram-negative strains; >128 counted as 256 μM
Description: as §1, with “In” for “Minimal bactericidal concentrations (MBCs) were measured using the method which has been adopted from National Committee for Clinical Laboratory Standards (NCCLS), with modifications. In”
(§2) The therapeutic index (TI) is calculated by the ration of the minimum hemolytic concentration (MHC) to the geometric mean of the MBC (GM) to evaluate cell selectivity of peptides.

[4] = test system: 3 gram-positive strains tested; conditions: MHC/GM for 3 gram-positive strains; >128 counted as 256 μM
Description: as §1, with “In” for “Minimal bactericidal concentrations (MBCs) were measured using the method which has been adopted from National Committee for Clinical Laboratory Standards (NCCLS), with modifications. In”
as §2

[5] = test system: all of the 6 strains tested; assay: Geometric mean of MBCs and therapeutic index, all strains; type: cell-based; conditions: MHC/GM for all 6 strains; >128 counted as 256 μM
Description: as §1, with “In” for “Minimal bactericidal concentrations (MBCs) were measured using the method which has been adopted from National Committee for Clinical Laboratory Standards (NCCLS), with modifications. In”
as §2

E. coli ATCC 25922 [6] = type: cell-based, Escherichia coli; conditions: ATCC 25922, 5 h; remark: listed apart in the source
Description: as §1, with “In short, 50 μL peptide solutions were pipetted into microtiter plates at various concentrations ranging from 1 to 128 μM.” left out, “growth. […] The salt sensitivity of the peptides was measured using a modified method, as described previously. […] The subsequent steps were consistent with the MBCs determination method.” for “growth.”

S. aureus ATCC 29213 = type: cell-based, Staphylococcus aureus; conditions: ATCC 29213, 5 h
Description: as §1, with “In short, 50 μL peptide solutions were pipetted into microtiter plates at various concentrations ranging from 1 to 128 μM.” left out, “growth. […] The salt sensitivity of the peptides was measured using a modified method, as described previously. […] The subsequent steps were consistent with the MBCs determination method.” for “growth.”

E. coli ATCC 25922 [7] = type: cell-based, Escherichia coli; conditions: ATCC 25922, 24 h
Description: The checkerboard titration method is commonly used to evaluate the synergy of different antibacterial combinations. First, 2-fold serial dilutions of the antibiotics and antimicrobial peptides were prepared. Subsequently, 50 μL each of different concentrations of antibiotics and of antimicrobial peptides was mixed and added into 100 μL of bacterial solution (containing approximately 0.5–1 × 10^6 CFU mL^−1) in each well of a 96-well plate. The plates were then incubated at 37 °C for 24 h. The subsequent steps were consistent with the MBCs determination method. The fractional inhibitory concentration (FIC) index (FICI) was calculated as follows: An FICI < 0.5 is considered to indicate synergy; 0.5 < FICI < 1.0 is considered additive; 1.0 < FICI < 4.0 is considered indifferent; and an FICI > 4.0 is considered antagonism.

[8] = test system: human red blood cells (hRBCs); assay: Hemolytic activity; conditions: concentration causing 5% hemolysis of human red blood cells; about 1% hRBC in PBS, 37 °C, 1 h, OD 576 nm
Description: The hemolytic activity of each peptide was evaluated using a modified method, as described previously[21][22]. […] Then, the collected hRBCs were washed three times with PBS (pH 7.2), centrifuged at 1000 × g for 5 min, and resuspended in PBS (final concentration, approximately 1%). Next, 50 μL of the hRBC suspension was placed into a 96-well cell culture plate with 50 μL of test peptide solution in PBS at different concentrations, and the mixture was incubated at 37 °C for 1 h. After incubation, the plate was centrifuged at 1000 × g for 5 min, the supernatant was transferred to a new 96-well cell culture plate, and the release of hemoglobin was measured by monitoring optical density (OD) at 576 nm. Untreated hRBCs suspension was used as a negative control, and the hRBCs treated with 0.1% Triton X-100 were employed as positive controls. Each test was reproduced at least 3 times using 6 replicates. Percent hemolysis was calculated using the following equation:

Substance	Minimum bactericidal concentration (E. coli ATCC 25922 [1])	Minimum bactericidal concentration (E. coli UB1005)	Minimum bactericidal concentration (S. typhimurium ATCC14028)	Minimum bactericidal concentration (S. aureus ATCC29213)	Minimum bactericidal concentration [2]	Minimum bactericidal concentration (S. epidermidis ATCC12228)	TI (therapeutic index), gram-negative [3]	TI (therapeutic index), gram-positive [4]	TI (therapeutic index), all strains [5]	MBC with CaCl2 (E. coli ATCC 25922 [6])	MBC with FeCl3 (E. coli ATCC 25922 [6])	MBC with KCl (E. coli ATCC 25922 [6])	MBC with MgCl2 (E. coli ATCC 25922 [6])	MBC with NH4Cl (E. coli ATCC 25922 [6])	MBC with NaCl (E. coli ATCC 25922 [6])	MBC with ZnCl2 (E. coli ATCC 25922 [6])	MBC, control (E. coli ATCC 25922 [6])	MBC with CaCl2 (S. aureus ATCC 29213)	MBC with FeCl3 (S. aureus ATCC 29213)	MHC (minimum hemolytic concentration) [8]	also measured
GKLWLKGGKLWLKGGKLWLKG-NH2 [GG3]	2 µM	2 µM	4 µM	16 µM	32 µM	32 µM	101.59	10.08	32	2 µM	1 µM	2 µM	2 µM	2 µM	2 µM	2 µM	2 µM	16 µM	16 µM	>128 µM	MBC with KCl (S. aureus ATCC 29213): 8 µM; MBC with MgCl2 (S. aureus ATCC 29213): 16 µM; MBC with NH4Cl (S. aureus ATCC 29213): 16 µM; MBC with NaCl (S. aureus ATCC 29213): 16 µM; MBC with ZnCl2 (S. aureus ATCC 29213): 16 µM; MBC, control (S. aureus ATCC 29213): 16 µM; FIC index in combination with Ceftazidime (E. coli ATCC 25922 [7]): 0.75; FIC index in combination with Chloramphenicol (E. coli ATCC 25922 [7]): 1; FIC index in combination with Ciprofloxacin (E. coli ATCC 25922 [7]): 1; FIC index in combination with Streptomycin (E. coli ATCC 25922 [7]): 0.5
GKLWLKGGKLWLKG-NH2 [GG2]	4 µM	32 µM	64 µM	128 µM	64 µM	128 µM	12.70	2.52	5.66	16 µM	4 µM	4 µM	16 µM	4 µM	>128 µM	4 µM	4 µM	>128 µM	128 µM	>128 µM	MBC with KCl (S. aureus ATCC 29213): 128 µM; MBC with MgCl2 (S. aureus ATCC 29213): >128 µM; MBC with NH4Cl (S. aureus ATCC 29213): 128 µM; MBC with NaCl (S. aureus ATCC 29213): >128 µM; MBC with ZnCl2 (S. aureus ATCC 29213): 128 µM; MBC, control (S. aureus ATCC 29213): 128 µM; FIC index in combination with Ceftazidime (E. coli ATCC 25922 [7]): 2; FIC index in combination with Chloramphenicol (E. coli ATCC 25922 [7]): 1; FIC index in combination with Ciprofloxacin (E. coli ATCC 25922 [7]): 2; FIC index in combination with Streptomycin (E. coli ATCC 25922 [7]): 1
GKLWLKGGKLWLKGGKLWLKGGKLWLKG-NH2 [GG4]	4 µM	8 µM	32 µM	128 µM	128 µM	>128 µM	1.59	0.10	0.40	4 µM	4 µM	4 µM	4 µM	4 µM	4 µM	4 µM	4 µM	–	–	16 µM	–
AKLWALKAKLWALKAKLWALK-NH2 [AA3s1]	2 µM	4 µM	16 µM	16 µM	16 µM	64 µM	3.17	0.63	1.41	–	–	–	–	–	–	–	–	–	–	16 µM	–
GLWKGKLGLWKGKLGLWKGKL-NH2 [GG3s2]	4 µM	4 µM	32 µM	128 µM	64 µM	64 µM	32	3.17	10.08	–	–	–	–	–	–	–	–	–	–	>128 µM	–
AKLWLKAAKLWLKA-NH2 [AA2]	1 µM	8 µM	16 µM	16 µM	16 µM	32 µM	25.40	6.35	12.70	4 µM	1 µM	1 µM	2 µM	1 µM	2 µM	1 µM	1 µM	64 µM	16 µM	128 µM	MBC with KCl (S. aureus ATCC 29213): 16 µM; MBC with MgCl2 (S. aureus ATCC 29213): 32 µM; MBC with NH4Cl (S. aureus ATCC 29213): 8 µM; MBC with NaCl (S. aureus ATCC 29213): 128 µM; MBC with ZnCl2 (S. aureus ATCC 29213): 8 µM; MBC, control (S. aureus ATCC 29213): 16 µM; FIC index in combination with Ceftazidime (E. coli ATCC 25922 [7]): 1; FIC index in combination with Chloramphenicol (E. coli ATCC 25922 [7]): 1; FIC index in combination with Ciprofloxacin (E. coli ATCC 25922 [7]): 0.75; FIC index in combination with Streptomycin (E. coli ATCC 25922 [7]): 0.5
AKLWLKAAKLWLKAAKLWLKAAKLWLKA-NH2 [AA4]	8 µM	32 µM	128 µM	32 µM	32 µM	32 µM	0.03	0.03	0.03	8 µM	8 µM	4 µM	8 µM	8 µM	64 µM	4 µM	8 µM	128 µM	32 µM	1 µM	MBC with KCl (S. aureus ATCC 29213): 32 µM; MBC with MgCl2 (S. aureus ATCC 29213): 32 µM; MBC with NH4Cl (S. aureus ATCC 29213): 32 µM; MBC with NaCl (S. aureus ATCC 29213): 32 µM; MBC with ZnCl2 (S. aureus ATCC 29213): 32 µM; MBC, control (S. aureus ATCC 29213): 32 µM
